# Source: patent US11446276B2, “Extreme low dose THC as a therapeutic and prophylactic agent for Alzheimer's disease” (University of South Florida, priority 2015, dated 2022)
# Read-outs that look alike come from different tables or passages of the source.
# Tests used:
# Aβ in N2a/AβPPswe cells = experiment: Sandwich ELISA of Aβ in N2a/AβPPswe cells treated with THC and CB1 inhibitor rimonabant; format: cell-based, human
# Procedure: The mechanism of action was elucidated for THC's effect on Aβ levels using a sandwich ELISA assay. N2a/AβPPswe cells, as discussed in Example 1, were suspended to 2×10^5/mL, 3 mL plated into each well, and grown in DMEM with 10% fetal bovine serum, 100 U/mL penicillin, 100 μg/mL streptomycin, and 400 μg/mL G418 (Invitrogen), at 37° C. in the presence of 5% CO2. N2a/AβPPswe cells were subcultured using trypsin, and pipetted numerous times to ensure cells were separated into individual cells. Cells were counted, as provided in Example 1, and proper amount of cell medium and fresh medium was added into new flasks according to the ratio of dilution. Pipetting was performed 10 times to homogenize cells, and 3 mL of cells were seeded into medium into each 6 well plate. When one pipette was used up, the cells were mixed in the flask before using them for the next pipette. Compounds were suspended in DMSO.
# 12 hours after cells were plated, cells were treated with 25 nM of Δ9-THC (T4764-1ML Sigma Aldrich, Merck KGaA; Darmstadt, Germany), with the known inhibitor of the CB1 receptor, rimonabant, at 0 μM, 100 μM, 10 μM, 1 μM, or 0.1 μM rimonabant. Untreated N2a/AβPPswe cells were used as a control. Treatment was then washed out, i.e. the medium was then removed from the cultures and 3 mL of media containing the treatment compounds were added. Cells were collected at 12 hours afterwards, 48 hours afterwards, 60 hours afterwards, and 72 hours afterwards, and ELISA was conducted on the cells.
# ELISA assay was performed on the cells using 50 μL of goat anti-PWT1-42 antibody solution, which was incubated overnight, followed by a 1-hour incubation with 0.1% I-block buffer. The tissue culture supernatant was diluted 1:10 with diluent buffer containing a protease inhibitor. Standards were prepared by serial dilution, as provided in Example 1. The plate was washed and 50 μL of sample or standard was added with triplication. 50 μL of both Biosource 40/42 (HS) (primary antibody) Aβ and a standard solution was added to each well and incubated for 3 hours followed by 5× wash with PBST. […]
# tau or neurofilament = conditions: induced by wortmannin, calyculin A, okadaic acid; N2a and SH-SY5Y cells; cited from earlier work
# Aβ [1] = conditions: transgenic model of AD; cited from earlier work
# [2] = tested on: Aβ in neuroblastoma cells; conditions: cited from earlier work
# mitochondrial function = conditions: Alzheimer's mice; cited from earlier work
# [3] = tested on: hepatic mitochondrial DNA; conditions: mice; cited from earlier work
# Aβ1-41 = conditions: transgenic mice; cited from earlier work
# [4] = tested on: mitochondrial complexes I and IV; conditions: in vivo; cited from earlier work
# Aβ aggregation [5] = conditions: neuronal cells; cited from earlier work
# Aβ [6] = conditions: entorhinal cortex and hippocampus; transgenic mice model of AD; cited from earlier work
# Aβ [7] = conditions: rats; cited from earlier work
# Aβ [8] = conditions: frontal cortex; transgenic mice; cited from earlier work
# AβPP = conditions: transgenic model of AD; cited from earlier work
# Aβ aggregation [9] = conditions: PC12 cells study; cited from earlier work
# Aβ [10] = conditions: rat model of sporadic AD; cited from earlier work
# GSK-3β phosphorylation = conditions: melatonin 100 μM at the cellular level; cited from earlier work
# Aβ in N2A cells = conditions: cited from earlier work
# [11] = tested on: tau protein in PC12 cells; conditions: cited from earlier work
# [12] = tested on: Aβ40 in N2a/AβPPswe cells; experiment: Aβ40 ELISA of N2a/AβPPswe cells treated with THC or caffeine; format: cell-based, human; conditions: THC 0.25-2500 nM or caffeine 0.625-10 μM
# Aβ [13] = conditions: cited from earlier work
smiles,measurement,setting,value
Cc1c(C(=O)NN2CCCCC2)nn(-c2ccc(Cl)cc2Cl)c1-c1ccc(Cl)cc1 [rimonabant],Block of THC's Aβ lowering by CB1 antagonist,Aβ in N2a/AβPPswe cells; antagonist at 10^−4 M with 25 nM THC,partially blocked
same,Block of THC's Aβ lowering by CB1 antagonist,Aβ in N2a/AβPPswe cells; antagonist at 10^−7 M with 25 nM THC,inhibition function is lost
COc1ccc2[nH]cc(CCNC(C)=O)c2c1 [melatonin],Tau or neurofilament hyperphosphorylation,tau or neurofilament,efficiently attenuates tau or neurofilament hyperphosphorylation
same,Aβ levels,Aβ [1],reduction in Aβ levels
same,Aβ levels,[2],reduction of Aβ levels
same,Mitochondrial function,mitochondrial function,restores mitochondrial function
same,Ethanol-induced hepatic mitochondrial DNA depletion,[3],protects against ethanol-induced hepatic mitochondrial DNA depletion
same,Aβ1-41 levels,Aβ1-41,decreased Aβ1-41 levels
same,Inhibition of mitochondrial complexes I and IV induced by ruthenium red,[4],prevented the inhibition of mitochondrial complexes I and IV
same,Aβ aggregation,Aβ aggregation [5],reduced Aβ aggregation
same,Aggregation of Aβ,Aβ [6],decreased the aggregation of Aβ
same,Hippocampal Aβ generation,Aβ [7],reduced hippocampal Aβ generation
same,Aβ levels,Aβ [8],reduces Aβ levels
same,AβPP levels,AβPP,no change in AβPP levels
same,Aβ aggregation,Aβ aggregation [9],prevents Aβ aggregation
same,Aβ accumulation,Aβ [10],attenuates Aβ accumulation
same,Decreased GSK-3β phosphorylation,GSK-3β phosphorylation,about 40%
same,Aβ levels,Aβ in N2A cells,reduced Aβ levels
C=C(C)[C@@H]1CCC(C)=C[C@H]1c1c(O)cc(CCCCC)cc1O [Cannabidiol],β-amyloid-induced tau protein hyperphosphorylation,[11],inhibits β-amyloid-induced tau protein hyperphosphorylation
Cn1c(=O)c2c(ncn2C)n(C)c1=O [caffeine],Aβ40 levels versus control,"[12]; 6 hours, FIG. 1A",significant reduction
same,Aβ40 levels versus control,"[12]; 24 hours, FIG. 1B",exponential drop
same,Aβ40 levels versus control,"[12]; 48 hours, FIG. 1C",significant difference
same,Serum Aβ40 levels,Aβ [13]; mouse model,lower serum Aβ40 levels
same,Brain Aβ levels,Aβ [13]; transgenic mouse model,lowering brain Aβ levels
